Measured values as given in publication PMC9005681, “Use of AD Informer Set compounds to explore validity of novel targets in Alzheimer's disease pathology” (Alzheimer's & Dementia : Translational Research & Clinical …, 2022).
Several values for one entry are separate records, joined by “and”; a condition that tells them apart may be missing. Equal entries are not always repeated. Where two headings read alike, the source gives them in different places.

Assays:
cellular system = tested on: cellular system; set-up: method as in column References for potency and dosing (the 5th table c13); conditions: published data; References for potency and dosing; cited from earlier work
[1] = cited from earlier work
[2] = target: T1, cloned human or rodent CNS receptors, channels, and transporters (PDSP panel) (Homo sapiens, UniProt P28221); experiment: PDSP GPCR panel primary binding assays at 10 μM; conditions: primary assay
T1 construct: expressed in transfected cells
T1 sequence (P28221 whole entry): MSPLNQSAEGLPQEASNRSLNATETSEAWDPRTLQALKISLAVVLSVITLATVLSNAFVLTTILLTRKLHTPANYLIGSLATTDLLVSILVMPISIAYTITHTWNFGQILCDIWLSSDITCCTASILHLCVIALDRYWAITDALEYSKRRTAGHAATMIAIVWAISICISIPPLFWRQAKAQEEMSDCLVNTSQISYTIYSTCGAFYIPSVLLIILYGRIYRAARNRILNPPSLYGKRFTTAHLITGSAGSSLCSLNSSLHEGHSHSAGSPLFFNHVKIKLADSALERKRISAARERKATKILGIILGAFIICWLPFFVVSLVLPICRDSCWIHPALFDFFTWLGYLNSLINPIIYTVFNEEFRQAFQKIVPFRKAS
Method: (§1) GPCR panel: Screening against the receptors within the PDSP panel offers an assessment of off-target pharmacological activity at cloned human or rodent CNS receptors, channels, and transporters that could confound CNS-related phenotypes. A total of 46–47 primary binding assays were run in quadruplicate on these compounds at 10 μM, with follow-up secondary binding assays in 11-point dose-response in triplicate for select compounds versus select receptors. Secondary binding assays were executed for all receptors where test compound displaced an average of >50% of radio-labeled standard ligand. As an exception, no secondary assays were carried out for H3, PBR, or GABAA. […]

[3] = target: T2, cloned human or rodent CNS receptors, channels, and transporters (PDSP panel) (Homo sapiens, UniProt P34969); experiment: PDSP GPCR panel primary binding assays at 10 μM; conditions: primary assay
T2 construct: expressed in transfected cells
T2 sequence (P34969 whole entry): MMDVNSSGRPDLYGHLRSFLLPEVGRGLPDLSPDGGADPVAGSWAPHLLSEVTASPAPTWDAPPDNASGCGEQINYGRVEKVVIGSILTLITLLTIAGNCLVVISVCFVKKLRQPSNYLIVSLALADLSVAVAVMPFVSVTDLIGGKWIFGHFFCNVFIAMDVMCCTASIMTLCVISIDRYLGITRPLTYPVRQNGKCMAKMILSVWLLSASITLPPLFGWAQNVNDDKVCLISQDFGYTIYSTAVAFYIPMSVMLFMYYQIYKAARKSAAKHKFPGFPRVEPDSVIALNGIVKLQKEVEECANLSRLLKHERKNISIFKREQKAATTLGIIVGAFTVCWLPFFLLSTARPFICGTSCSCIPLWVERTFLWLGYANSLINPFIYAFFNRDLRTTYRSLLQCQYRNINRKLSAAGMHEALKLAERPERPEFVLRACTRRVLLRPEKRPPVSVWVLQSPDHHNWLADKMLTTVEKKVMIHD
Method: as §1

[4] = target: T3, cloned human or rodent CNS receptors, channels, and transporters (PDSP panel) (Homo sapiens, UniProt P21728); experiment: PDSP GPCR panel primary binding assays at 10 μM; conditions: primary assay
T3 construct: expressed in transfected cells
T3 sequence (P21728 whole entry): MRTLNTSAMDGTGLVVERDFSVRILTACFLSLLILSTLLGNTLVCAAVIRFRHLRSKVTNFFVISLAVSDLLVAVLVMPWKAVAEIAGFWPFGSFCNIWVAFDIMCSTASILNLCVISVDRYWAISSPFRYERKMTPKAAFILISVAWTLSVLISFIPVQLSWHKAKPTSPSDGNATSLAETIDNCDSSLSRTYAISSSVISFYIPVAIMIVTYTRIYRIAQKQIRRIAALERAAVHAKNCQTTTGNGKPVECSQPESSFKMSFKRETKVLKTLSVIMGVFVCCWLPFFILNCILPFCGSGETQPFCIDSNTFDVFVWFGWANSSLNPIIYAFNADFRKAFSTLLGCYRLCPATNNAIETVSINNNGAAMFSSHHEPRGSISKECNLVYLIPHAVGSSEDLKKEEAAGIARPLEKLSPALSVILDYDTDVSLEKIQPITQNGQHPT
Method: as §1

[5] = target: T4, cloned human or rodent CNS receptors, channels, and transporters (PDSP panel) (Homo sapiens, UniProt P46098); experiment: PDSP GPCR panel primary binding assays at 10 μM; conditions: primary assay
T4 construct: expressed in transfected cells
T4 sequence (P46098 24-478): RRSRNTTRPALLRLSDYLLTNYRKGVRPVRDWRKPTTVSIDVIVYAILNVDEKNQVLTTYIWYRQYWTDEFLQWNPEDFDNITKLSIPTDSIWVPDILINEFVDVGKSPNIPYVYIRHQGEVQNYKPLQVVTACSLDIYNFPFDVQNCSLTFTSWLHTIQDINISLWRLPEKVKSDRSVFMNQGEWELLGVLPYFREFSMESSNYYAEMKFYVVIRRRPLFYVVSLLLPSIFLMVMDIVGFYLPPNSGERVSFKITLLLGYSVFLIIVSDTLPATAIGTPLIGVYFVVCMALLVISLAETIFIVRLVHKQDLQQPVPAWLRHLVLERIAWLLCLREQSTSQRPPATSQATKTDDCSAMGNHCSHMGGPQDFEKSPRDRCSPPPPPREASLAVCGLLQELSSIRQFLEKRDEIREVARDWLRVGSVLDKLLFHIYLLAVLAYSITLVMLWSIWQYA
Method: as §1

[6] = target: T5, cloned human or rodent CNS receptors, channels, and transporters (PDSP panel) (Homo sapiens, UniProt P41595); experiment: PDSP GPCR panel primary binding assays at 10 μM; conditions: primary assay
T5 construct: expressed in transfected cells
T5 sequence (P41595 whole entry): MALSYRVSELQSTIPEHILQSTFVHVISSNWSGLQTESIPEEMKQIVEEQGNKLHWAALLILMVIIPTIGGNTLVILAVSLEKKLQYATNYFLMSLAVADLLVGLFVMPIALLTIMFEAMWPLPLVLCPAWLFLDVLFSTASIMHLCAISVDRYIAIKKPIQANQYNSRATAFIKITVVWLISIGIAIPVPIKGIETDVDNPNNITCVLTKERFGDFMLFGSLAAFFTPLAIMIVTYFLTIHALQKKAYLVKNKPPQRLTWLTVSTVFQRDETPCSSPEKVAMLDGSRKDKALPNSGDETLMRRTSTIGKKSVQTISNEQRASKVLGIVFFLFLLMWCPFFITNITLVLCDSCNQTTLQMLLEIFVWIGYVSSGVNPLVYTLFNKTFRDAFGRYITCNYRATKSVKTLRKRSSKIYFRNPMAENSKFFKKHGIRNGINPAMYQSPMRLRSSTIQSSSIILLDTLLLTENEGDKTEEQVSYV
Method: as §1

[7] = target: T6, cloned human or rodent CNS receptors, channels, and transporters (PDSP panel) (Homo sapiens, UniProt P25021); experiment: PDSP GPCR panel primary binding assays at 10 μM; conditions: primary assay
T6 construct: expressed in transfected cells
T6 sequence (P25021 whole entry): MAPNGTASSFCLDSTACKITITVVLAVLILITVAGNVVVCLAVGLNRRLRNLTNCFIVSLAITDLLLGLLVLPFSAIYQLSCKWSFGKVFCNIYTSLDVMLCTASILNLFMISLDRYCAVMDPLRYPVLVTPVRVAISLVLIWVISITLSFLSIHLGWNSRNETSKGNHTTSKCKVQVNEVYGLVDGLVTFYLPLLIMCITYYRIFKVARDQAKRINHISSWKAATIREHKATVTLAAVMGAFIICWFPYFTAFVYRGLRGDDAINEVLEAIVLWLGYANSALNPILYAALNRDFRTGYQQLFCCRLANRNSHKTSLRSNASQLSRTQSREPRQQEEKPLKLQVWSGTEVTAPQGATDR
Method: as §1

[8] = target: T7, cloned human or rodent CNS receptors, channels, and transporters (PDSP panel) (Homo sapiens, UniProt P47898); experiment: PDSP GPCR panel primary binding assays at 10 μM; conditions: primary assay
T7 construct: expressed in transfected cells
T7 sequence (P47898 whole entry): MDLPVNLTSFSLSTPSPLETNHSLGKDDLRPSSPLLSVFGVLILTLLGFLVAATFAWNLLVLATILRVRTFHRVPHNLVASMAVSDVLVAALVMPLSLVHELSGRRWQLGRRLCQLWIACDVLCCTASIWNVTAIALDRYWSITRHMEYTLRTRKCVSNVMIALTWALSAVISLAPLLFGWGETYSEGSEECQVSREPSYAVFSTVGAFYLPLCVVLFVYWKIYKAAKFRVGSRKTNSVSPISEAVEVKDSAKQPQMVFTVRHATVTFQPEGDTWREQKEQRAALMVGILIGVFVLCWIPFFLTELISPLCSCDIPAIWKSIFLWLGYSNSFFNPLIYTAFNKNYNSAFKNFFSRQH
Method: as §1

[9] = target: T8, cloned human or rodent CNS receptors, channels, and transporters (PDSP panel) (Homo sapiens, UniProt P35372); experiment: PDSP GPCR panel primary binding assays at 10 μM; conditions: primary assay
T8 construct: expressed in transfected cells
T8 sequence (P35372 whole entry): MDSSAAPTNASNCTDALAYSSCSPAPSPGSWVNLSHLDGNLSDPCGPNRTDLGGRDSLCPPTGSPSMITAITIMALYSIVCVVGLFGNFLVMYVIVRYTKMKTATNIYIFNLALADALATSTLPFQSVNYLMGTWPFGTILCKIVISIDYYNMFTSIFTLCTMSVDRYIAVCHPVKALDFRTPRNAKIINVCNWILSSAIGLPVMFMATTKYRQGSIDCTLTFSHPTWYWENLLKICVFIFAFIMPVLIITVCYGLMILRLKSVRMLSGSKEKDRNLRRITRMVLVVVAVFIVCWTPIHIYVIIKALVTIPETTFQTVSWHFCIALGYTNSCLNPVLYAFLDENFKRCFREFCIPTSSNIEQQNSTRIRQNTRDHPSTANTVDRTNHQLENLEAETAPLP
Method: as §1

[10] = target: T9, cloned human or rodent CNS receptors, channels, and transporters (PDSP panel) (Homo sapiens, UniProt P08172); experiment: PDSP GPCR panel primary binding assays at 10 μM; conditions: primary assay
T9 construct: expressed in transfected cells
T9 sequence (P08172 1-466): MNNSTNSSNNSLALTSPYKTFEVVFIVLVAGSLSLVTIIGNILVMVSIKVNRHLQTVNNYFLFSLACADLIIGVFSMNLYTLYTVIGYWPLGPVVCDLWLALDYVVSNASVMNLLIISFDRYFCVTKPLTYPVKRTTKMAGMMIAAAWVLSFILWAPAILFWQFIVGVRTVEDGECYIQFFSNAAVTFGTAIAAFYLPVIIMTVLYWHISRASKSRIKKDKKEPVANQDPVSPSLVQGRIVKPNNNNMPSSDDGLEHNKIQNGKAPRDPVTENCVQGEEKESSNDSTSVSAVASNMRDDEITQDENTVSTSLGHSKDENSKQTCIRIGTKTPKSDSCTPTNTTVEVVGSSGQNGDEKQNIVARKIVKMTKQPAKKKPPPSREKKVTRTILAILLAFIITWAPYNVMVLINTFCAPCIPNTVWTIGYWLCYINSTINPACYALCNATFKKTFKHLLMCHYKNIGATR
Method: as §1

[11] = target: T10, cloned human or rodent CNS receptors, channels, and transporters (PDSP panel) (Homo sapiens, UniProt P23975); experiment: PDSP GPCR panel primary binding assays at 10 μM; conditions: primary assay
T10 construct: expressed in transfected cells
T10 sequence (P23975 whole entry): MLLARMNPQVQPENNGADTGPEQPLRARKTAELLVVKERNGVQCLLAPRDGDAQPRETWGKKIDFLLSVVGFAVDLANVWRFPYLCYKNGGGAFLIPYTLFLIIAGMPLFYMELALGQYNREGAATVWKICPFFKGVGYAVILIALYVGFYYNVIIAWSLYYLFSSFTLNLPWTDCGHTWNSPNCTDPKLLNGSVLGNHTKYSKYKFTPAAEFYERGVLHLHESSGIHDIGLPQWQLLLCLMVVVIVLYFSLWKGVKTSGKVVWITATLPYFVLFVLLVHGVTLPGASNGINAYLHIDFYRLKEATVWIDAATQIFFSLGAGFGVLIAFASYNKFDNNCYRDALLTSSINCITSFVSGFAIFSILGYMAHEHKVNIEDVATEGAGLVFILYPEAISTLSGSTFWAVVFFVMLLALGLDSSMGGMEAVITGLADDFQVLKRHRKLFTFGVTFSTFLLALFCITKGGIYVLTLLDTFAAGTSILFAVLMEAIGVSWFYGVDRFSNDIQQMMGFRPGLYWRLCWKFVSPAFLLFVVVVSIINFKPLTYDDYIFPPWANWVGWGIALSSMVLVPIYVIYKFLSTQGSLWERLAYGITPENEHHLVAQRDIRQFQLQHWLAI
Method: as §1

SMILES: Cl.NC(=O)c1cnc(N[C@@H]2CCCC[C@@H]2N)nc1Nc1cccc(-n2nccn2)c1 [UNC10302682A, P505-15 (PRT06207 HCl)]
- Reported as cell active (<10 μM) (cellular system): Y (Published data supports that the compound is active in a cellular system when dosed at 10 μM (Y/N))
- Kinetic solubility ([1]; aqueous, neutral pH (7.4)): 118.2 µM
- Inhibition 1 ([2]; Receptor 5-HT1D, 10 μM): 74.44%
- Inhibition 2 ([2]; Receptor 5-HT1D, 10 μM): 57.78%
- Inhibition 3 ([2]; Receptor 5-HT1D, 10 μM): 54.87%
- Inhibition 4 ([2]; Receptor 5-HT1D, 10 μM): 71.94%
- Mean % ([2]; Receptor 5-HT1D, 10 μM, mean of Inhibition 1-4): 64.76%
- Inhibition 1 ([3]; Receptor 5-HT7A, 10 μM): 33.86%
- Inhibition 2 ([3]; Receptor 5-HT7A, 10 μM): 20.22%
- Inhibition 3 ([3]; Receptor 5-HT7A, 10 μM): 54.31%
- Inhibition 4 ([3]; Receptor 5-HT7A, 10 μM): 52.91%
- Mean % ([3]; Receptor 5-HT7A, 10 μM, mean of Inhibition 1-4): 40.33%
- Inhibition 1 ([4]; Receptor D1, 10 μM): 10.12%
- Inhibition 2 ([4]; Receptor D1, 10 μM): 11.25%
- Inhibition 3 ([4]; Receptor D1, 10 μM): 12.71%
- Inhibition 4 ([4]; Receptor D1, 10 μM): 8.82%
- Mean % ([4]; Receptor D1, 10 μM, mean of Inhibition 1-4): 10.73%
- Inhibition 1 ([5]; Receptor 5-HT3, 10 μM): 66.83%
- Inhibition 2 ([5]; Receptor 5-HT3, 10 μM): 77.09%
- Inhibition 3 ([5]; Receptor 5-HT3, 10 μM): 73.28%
- Inhibition 4 ([5]; Receptor 5-HT3, 10 μM): 75.45%
- Mean % ([5]; Receptor 5-HT3, 10 μM, mean of Inhibition 1-4): 73.16%
- Inhibition 1 ([6]; Receptor 5-HT2B, 10 μM): 19.24%
- Inhibition 2 ([6]; Receptor 5-HT2B, 10 μM): 3.3%
- Inhibition 3 ([6]; Receptor 5-HT2B, 10 μM): -9.28%
- Inhibition 4 ([6]; Receptor 5-HT2B, 10 μM): -13.48%
- Mean % ([6]; Receptor 5-HT2B, 10 μM, mean of Inhibition 1-4): -0.06%
- Inhibition 1 ([7]; Receptor H2, 10 μM): 59.21%
- Inhibition 2 ([7]; Receptor H2, 10 μM): 38.77%
- Inhibition 3 ([7]; Receptor H2, 10 μM): 21.91%
- Inhibition 4 ([7]; Receptor H2, 10 μM): -3.64%
- Mean % ([7]; Receptor H2, 10 μM, mean of Inhibition 1-4): 29.06%
- Inhibition 1 ([8]; Receptor 5-HT5A, 10 μM): -3.51%
- Inhibition 2 ([8]; Receptor 5-HT5A, 10 μM): -8.26%
- Inhibition 3 ([8]; Receptor 5-HT5A, 10 μM): 4.4%
- Inhibition 4 ([8]; Receptor 5-HT5A, 10 μM): 6.38%
- Mean % ([8]; Receptor 5-HT5A, 10 μM, mean of Inhibition 1-4): -0.25%
- Inhibition 1 ([9]; Receptor MOR, 10 μM): 27.09%
- Inhibition 2 ([9]; Receptor MOR, 10 μM): 20.29%
- Inhibition 3 ([9]; Receptor MOR, 10 μM): 17.6%
- Inhibition 4 ([9]; Receptor MOR, 10 μM): 20.19%
- Mean % ([9]; Receptor MOR, 10 μM, mean of Inhibition 1-4): 21.29%
- Inhibition 1 ([10]; Receptor M2, 10 μM): -1.69%
- Inhibition 2 ([10]; Receptor M2, 10 μM): 2.24%
- Inhibition 3 ([10]; Receptor M2, 10 μM): -4.88%
- Inhibition 4 ([10]; Receptor M2, 10 μM): 1.51%
- Mean % ([10]; Receptor M2, 10 μM, mean of Inhibition 1-4): -0.71%
- Inhibition 1 ([11]; Receptor NET, 10 μM): 84.07% and 84.11%
- Inhibition 2 ([11]; Receptor NET, 10 μM): 85.74% and 79.57%
- Inhibition 3 ([11]; Receptor NET, 10 μM): 83.91% and 77.54%
- Inhibition 4 ([11]; Receptor NET, 10 μM): 89.74%
- Mean % ([11]; Receptor NET, 10 μM, mean of Inhibition 1-4): 85.87% and 80.58%

SMILES: CC(=O)N1CCC(NC(=O)NC23CC4CC(CC(C4)C2)C3)CC1 [UNC10302683A, AR9281]
- Reported as cell active (<10 μM) (cellular system): Y (Published data supports that the compound is active in a cellular system when dosed at 10 μM (Y/N))
- Kinetic solubility ([1]; pH 7.4): 162.6 µM
- Mean % ([2]; 5-HT1D, mean inhibition): 6.45%
- Inhibition 1 ([2]; 5-HT1D, replicate 1): 17.8%
- Inhibition 2 ([2]; 5-HT1D, replicate 2): 3.64%
- Inhibition 3 ([2]; 5-HT1D, replicate 3): 4.06%
- Inhibition 4 ([2]; 5-HT1D, replicate 4): 0.31%
- Mean % ([3]; 5-HT7A, mean inhibition): 20.3%
- Inhibition 1 ([3]; 5-HT7A, replicate 1): 4.73%
- Inhibition 2 ([3]; 5-HT7A, replicate 2): 29.98%
- Inhibition 3 ([3]; 5-HT7A, replicate 3): 12.78%
- Inhibition 4 ([3]; 5-HT7A, replicate 4): 33.7%
- Mean % ([4]; D1, mean inhibition): -14.57%
- Inhibition 1 ([4]; D1, replicate 1): -3.64%
- Inhibition 2 ([4]; D1, replicate 2): -20.64%
- Inhibition 3 ([4]; D1, replicate 3): -32.3%
- Inhibition 4 ([4]; D1, replicate 4): -1.7%
- Mean % ([5]; 5-HT3, mean inhibition): 13.87%
- Inhibition 1 ([5]; 5-HT3, replicate 1): 9.48%
- Inhibition 2 ([5]; 5-HT3, replicate 2): 13.6%
- Inhibition 3 ([5]; 5-HT3, replicate 3): -1.71%
- Inhibition 4 ([5]; 5-HT3, replicate 4): 34.11%
- Mean % ([6]; 5-HT2B, mean inhibition): -14.63%
- Inhibition 1 ([6]; 5-HT2B, replicate 1): 28.05%
- Inhibition 2 ([6]; 5-HT2B, replicate 2): -19.35%
- Inhibition 3 ([6]; 5-HT2B, replicate 3): -37.81%
- Inhibition 4 ([6]; 5-HT2B, replicate 4): -29.42%
- Mean % ([7]; H2, mean inhibition): -19%
- Inhibition 1 ([7]; H2, replicate 1): 4.92%
- Inhibition 2 ([7]; H2, replicate 2): -11.17%
- Inhibition 3 ([7]; H2, replicate 3): -32.29%
- Inhibition 4 ([7]; H2, replicate 4): -37.45%
- Mean % ([8]; 5-HT5A, mean inhibition): -4.79% and -3.44%
- Inhibition 1 ([8]; 5-HT5A, replicate 1): 13.38% and 13.31%
- Inhibition 2 ([8]; 5-HT5A, replicate 2): 8.95% and -14.87%
- Inhibition 3 ([8]; 5-HT5A, replicate 3): -49.4% and -7.36%
- Inhibition 4 ([8]; 5-HT5A, replicate 4): 7.91% and -4.85%
- Mean % ([9]; MOR, mean inhibition): 5.26%
- Inhibition 1 ([9]; MOR, replicate 1): 2.55%
- Inhibition 2 ([9]; MOR, replicate 2): 12.43%
- Inhibition 3 ([9]; MOR, replicate 3): 4.76%
- Inhibition 4 ([9]; MOR, replicate 4): 1.31%
- Mean % ([10]; M2, mean inhibition): -10.23%
- Inhibition 1 ([10]; M2, replicate 1): -16.19%
- Inhibition 2 ([10]; M2, replicate 2): -6.36%
- Inhibition 3 ([10]; M2, replicate 3): -14.96%
- Inhibition 4 ([10]; M2, replicate 4): -3.41%
- Mean % ([11]; NET, mean inhibition): 6.47% and 1.67%
- Inhibition 1 ([11]; NET, replicate 1): -14.58% and 25.31%
- Inhibition 2 ([11]; NET, replicate 2): -2.12% and 13.5%
- Inhibition 3 ([11]; NET, replicate 3): 2.28% and -19.09%
- Inhibition 4 ([11]; NET, replicate 4): 40.3% and -13.05%
